Assay [1] deals with T1, soluble epoxide hydrolase (sEH) (Homo sapiens, UniProt P34913).
T1 construct: purchased Cayman Chemical (Ann Arbor, MI, USA) 10011669
T1 sequence (P34913 1-555): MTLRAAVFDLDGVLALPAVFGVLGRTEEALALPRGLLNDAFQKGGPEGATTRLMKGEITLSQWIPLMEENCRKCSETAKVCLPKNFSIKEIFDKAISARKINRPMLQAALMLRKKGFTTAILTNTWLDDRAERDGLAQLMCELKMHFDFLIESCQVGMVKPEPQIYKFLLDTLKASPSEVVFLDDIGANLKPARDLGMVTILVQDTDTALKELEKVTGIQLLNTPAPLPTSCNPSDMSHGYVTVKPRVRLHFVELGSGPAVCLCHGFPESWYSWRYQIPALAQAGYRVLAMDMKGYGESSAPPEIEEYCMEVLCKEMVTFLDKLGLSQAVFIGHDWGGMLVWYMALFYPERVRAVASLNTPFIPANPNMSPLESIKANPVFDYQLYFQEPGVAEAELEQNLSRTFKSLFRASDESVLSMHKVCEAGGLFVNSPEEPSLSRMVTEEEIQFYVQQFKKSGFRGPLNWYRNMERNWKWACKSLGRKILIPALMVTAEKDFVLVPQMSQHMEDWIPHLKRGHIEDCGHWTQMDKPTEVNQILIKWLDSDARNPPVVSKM
As to the kind of experiment: sEH enzymatic assay (fluorometric, PHOME substrate). The format is biochemical. Conditions: 37 °C, pH 7.0, tested three times, read-out: Inhibition of Compounds on sEH IC50. The method, then: The sEH assay was performed as described previously, with minor modifications. To determine inhibitory activity, 130 μL of the sEH in 25 mM bis-Tris-HCl buffer (pH 7.0) containing 0.1% BSA was added to either 20 μL of inhibitor dissolved in MeOH. Next, 20 μL of PHOME was mixed to each mixture, which was then reacted at 37 °C for sEH hydrolysis. Product formation was monitored fluorometrically at 330 nm excitation and 465 nm emission for approximately 60 min.
sEH inhibition activity was calculated using sEH Inhibition rate (%) = [(ΔC − ΔI)/ΔC] × 100(1) where ΔC and ΔI are the difference of the solvent and compound intensities, respectively, after about one hour and y = y0 + (a × x/b + x)(2) where y0 is the minimum value along the y-axis, a is the difference between the maximum and minimum values, and b is the x value at 50 percent of the “a” value.

Assay [2] addresses T1, soluble epoxide hydrolase (sEH). As to the kind of experiment: Enzyme kinetics of sEH inhibition (Lineweaver–Burk and Dixon plots). Type of assay: biochemical. Conditions: for Binding Mode: Lineweaver–Burk plots, PHOME substrate; for Ki: Table 1, Dixon plots, read-out: Binding Mode (ki, M): ki. The method, then: Additionally, an enzyme kinetic study was performed to identify how the three compounds bound to this enzyme. The initial velocity (v0) of inhibitor was determined as the rate of enzymatic conversion from substrate to product depending on the concentration of inhibitor at the start of the enzymatic reaction. The results were visualized using classic double-reciprocal Lineweaver–Burk plots. Figure 2B–D indicates one 1/Km and four 1/Vmax values for the three inhibitors, which inhibited the catalytic reaction of sEH with PHOME in a noncompetitive manner.

In general, IC50 refers to the concentration at which inhibition is half-maximal. By Ki is commonly meant a measure of affinity in units of concentration, obtained from inhibition or displacement. For the compound `COc1cc2c(cc1OC)-c1cc3ccc(OC)c(OC)c3c[n+]1CC2` [Compound 1, palmatine], the concentration for half-maximal inhibition (IC50) in assay [1] came out at 29.6 ± 0.5 µM. Moreover, in assay [2], the “Binding Mode” value is reported as “Non-competitive” and the Ki was determined as 2.69e-05 M.

Turning to `COc1ccc2cc3[n+](cc2c1OC)CCc1cc2c(cc1-3)OCO2` [Compound 2, berberine], the half-maximal inhibitory concentration (IC50) in assay [1] came to 33.4 ± 0.8 µM. In assay [2], the “Binding Mode” value is given as “Non-competitive” and the Ki came to 4.68e-05 M.

Turning to `COc1cc2c(cc1O)CC[n+]1cc3c(OC)c(OC)ccc3cc1-2` [Compound 3, jatrorrhizine], the IC50 in assay [1] amounted to 27.3 ± 0.4 µM. In addition, in assay [2], the “Binding Mode” value is reported as “Non-competitive” and the inhibition constant (Ki) came out at 4.45e-05 M.

Values taken from paper PMC9498296, “Inhibitory Activity of Quaternary Isoquinoline Alkaloids on Soluble Epoxide Hydrolase” (Current Issues in Molecular Biology, 2022).
